Measured values reported in patent publication US20240228494A1, “COMPOUNDS” (PATHIOS THERAPEUTICS LIMITED, priority 2021, published 2024).
pIC50: −log10 of the molar value. Where two headings read alike, the source gives them in different places.

Molecular target: human recombinant GPR65 (Homo sapiens, UniProt Q8IYL9)
Experiment: Human GPR65 cAMP HTRF antagonist assay
Assay type: cell-based
Text: In one preferred embodiment, the compound prevents the increase in cytoplasmic cAMP levels expected following GPR65 activation at acidic pH. This prevention of cAMP accumulation in turn prevents downstream signalling through ICER, as described above. The “Human GPR65 cyclic adenosine monophosphate (cAMP) Homogeneous Time Resolved Fluorescence (HTRF) antagonist assay”, or simply “cAMP assay”, as described in the accompanying examples, can be used to measure the potency of GPR65 modulators, which is expressed as the concentration of compound required to reduce the increase in cAMP concentration upon GPR65 activation by 50% (i.e. an IC50).
Human GPR65 Cyclic Adenosine Monophosphate (cAMP) Homogeneous Time Resolved Fluorescence (HTRF) Antagonist Assay Procedure
IC50 data was obtained by the following procedure:
1321N1 human astrocytoma cells stably expressing human recombinant GPR65 (1321N1-hrGPR65 cells, EuroscreenFast) were cultured according to the vendor's instructions.
Compounds were tested for their ability to antagonise GPR65, through measuring the concentration of cytoplasmic cAMP following treatment of the cells at a pH of 7.2 to activate GPR65 signalling and addition of the compound to be tested. The extent to which the expected rise in cAMP concentration upon GPR65 activation was suppressed by the added compound is indicative of its potency. The assay was carried out according to EuroscreenFast assay methodology as follows.
On the day of the assay, test compounds were added to 384-well, low volume, white microtiter plates by acoustic dispensing. KRH buffer (5 mM KCl, 1.25 mM MgSO4, 124 mM NaCl, 25 mM HEPES, 13.3 mM Glucose, 1.25 mM KH2PO4 and 1.45 mM CaCl2) was adjusted to pH 6.5, pH 7.6 and pH 8.4 by adding NaOH. 1321N1-hGPR65 cells were rapidly thawed and diluted in KRH, pH 7.6 prior to centrifugation at 300×g for 5 min and resuspension in assay buffer (KRH, pH 7.6, supplemented with 1 mM 3-isobutyl-1-methylxanthine (IBMX) and 200 μM ethylenediaminetetraacetic acid (EDTA)). Cells were added to assay plates at a density of 2,000 cells per well in a volume of 5 μl. Assay plates were briefly centrifuged at 100×g and then incubated at room temperature for 30 min. Cells were stimulated by the addition of 5 μL KRH, pH 6.5, to achieve an assay pH of 7.2, while control wells received 5 μl KRH, pH 8.4 to achieve an assay pH of 7.9. Assay plates were briefly centrifuged at 100×g and then incubated at room temperature for 30 min.
Accumulation of cAMP was detected by cAMP HTRF kit (Cisbio). d2-labeled cAMP and cryptate-labeled anti-cAMP antibody in Lysis and Detection Buffer (Cisbio) were added to assay plates, and the plates were incubated at room temperature for 1 h. HTRF measurements were performed using a Pherastar FSX instrument. Acceptor and donor emission signals were measured at 665 nm and 620 nm, respectively, and HTRF ratios were calculated as signal665 nm/signal620 nm×10^4. Data were normalised to high and low control values and fitted with 4-parameter logistic regression to determine hGPR65 IC50 values for the test compounds, which are shown in Table 1.

[1] = 1321N1-hrGPR65 cells, assay pH 7.2, suppression of cAMP rise, read-out: hGPR65 IC50

Sequence of human recombinant GPR65 (Q8IYL9 whole entry): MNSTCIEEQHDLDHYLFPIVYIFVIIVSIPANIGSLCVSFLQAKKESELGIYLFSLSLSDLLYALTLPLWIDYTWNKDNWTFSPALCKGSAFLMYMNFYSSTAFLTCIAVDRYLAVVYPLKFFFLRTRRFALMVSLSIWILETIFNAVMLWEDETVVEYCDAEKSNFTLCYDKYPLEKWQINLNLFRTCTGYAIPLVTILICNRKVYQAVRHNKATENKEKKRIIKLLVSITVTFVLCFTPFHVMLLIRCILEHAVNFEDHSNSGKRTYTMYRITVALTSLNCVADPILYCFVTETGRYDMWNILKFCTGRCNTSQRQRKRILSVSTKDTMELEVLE

Structure (SMILES): O=C(Cc1ccc(Cl)c(Cl)c1)N1[C@H]2CC[C@@H]1c1ccnc(F)c1C2 [Compound 8, 2-(3,4-dichlorophenyl)-1-((5R,8S)-1-fluoro-6,7,8,9-tetrahydro-5H-5,8-epimino-cyclohepta[c]pyridin-10-yl)ethan-1-one]
- pIC50 [1]: 5.30 to 6.30

Structure (SMILES): S=C(Nc1ccc(Cl)c(Cl)c1)N1C2CCC1c1cncnc1C2 (racemic) [Compound 5, (±)-N-(3,4-dichlorophenyl)-6,7,8,9-tetrahydro-5H-5,8-epiminocyclo-hepta[d]pyrimidine-10-carbothioamide]
- pIC50: > 6.30

Structure (SMILES): N#C/N=C(/Nc1cc(C(F)(F)F)c(Cl)cc1F)N1[C@H]2CC[C@@H]1c1ccnc(F)c1C2 [Compound 11, (5R,8S)-N-(4-Chloro-2-fluoro-5-(trifluoromethyl)phenyl)-N′-cyano-1-fluoro-6,7,8,9-tetrahydro-5H-5,8-epimino-cyclohepta[c]pyridine-10-carboximidamide]
- pIC50: > 6.30

Structure (SMILES): Fc1cc(C(F)(F)F)c(Cl)cc1NC(=S)N1[C@H]2CC[C@@H]1c1ccnc(F)c1C2 [Compound 4, (5R,8S)-N-(5-chloro-2-fluoro-4-(trifluoromethyl)phenyl)-1-fluoro-6,7,8,9-tetrahydro-5H-5,8-epiminocyclohepta[c]pyridine-10-carbothioamide]
- pIC50: > 6.30

Structure (SMILES): N#C/N=C(\Nc1ccc(Cl)c(Cl)c1)N1[C@H]2CC[C@@H]1c1ccnc(F)c1C2 [Compound 6, (5R,8S,)—N′-Cyano-N-(3,4-dichlorophenyl)-1-fluoro-6,7,8,9-tetrahydro-5H-5,8-epiminocyclohepta[c]pyridine-10-carboximidamide]
- pIC50: > 6.30

Structure (SMILES): CO/N=C(\Nc1cc(Cl)c(Cl)cc1F)N1[C@H]2CC[C@@H]1c1ccnc(F)c1C2 [Compound 16, (5R,8S)—N-(4,5-dichloro-2-fluorophenyl)-1-fluoro-N′-methoxy-6,7,8,9-tetrahydro-5H-5,8-epiminocyclohepta[c]pyridine-10-carboximidamide]
- pIC50: > 6.30

Structure (SMILES): O/N=C(\Nc1cc(Cl)c(Cl)cc1F)N1[C@H]2CC[C@@H]1c1ccnc(F)c1C2 [Compound 15, (5R,8S)—N-(4,5-dichloro-2-fluorophenyl)-1-fluoro-N′-hydroxy-6,7,8,9-tetrahydro-5H-5,8-epiminocyclohepta[c]pyridine-10-carboximidamide]
- pIC50: > 6.30

Structure (SMILES): N=C(Nc1cc(Cl)c(Cl)cc1F)N1[C@H]2CC[C@@H]1c1ccnc(F)c1C2 [Compound 17, (5R,8S)—N′-(4,5-dichloro-2-fluorophenyl)-1-fluoro-6,7,8,9-tetrahydro-5H-5,8-epiminocyclohepta[c]pyridine-10-carboximidamide]
- pIC50 [1]: < 5.30

Structure (SMILES): N#C/N=C(/Nc1cc(Cl)c(Cl)cc1F)N1[C@H]2CC[C@@H]1c1ccnc(F)c1C2 [Compound 12, (5R,8S)-N′-cyano-N-(4,5-dichloro-2-fluorophenyl)-1-fluoro-6,7,8,9-tetrahydro-5H-5,8-epiminocyclohepta-[c]pyridine-10-carboximidamide]
- pIC50: > 6.30

Structure (SMILES): Fc1cc(Cl)c(Cl)cc1NC(=S)N1[C@H]2CC[C@@H]1c1ccnc(F)c1C2 [Compound 3, (5R,8S)-N-(4,5-dichloro-2-fluorophenyl)-1-fluoro-6,7,8,9-tetrahydro-5H-5,8-epiminocyclo-hepta[c]pyridine-10-carbothioamide]
- pIC50: > 6.30

Structure (SMILES): Fc1cc(C(F)(F)F)c(Br)cc1NC(=S)N1[C@H]2CC[C@@H]1c1ccnc(F)c1C2 [Compound 1, (5R,8S)—N-(5-Bromo-2-fluoro-4-(trifluoromethyl)phenyl)-1-fluoro-6,7,8,9-tetrahydro-5H-5,8-epiminocyclohepta[c]pyridine-10-carbothioamide]
- pIC50: > 6.30

Structure (SMILES): O=C(Oc1ccc(Cl)c(Cl)c1)N1C2CCC1c1cncnc1C2 (racemic) [Compound 10, 3,4-dichlorophenyl (±)-6,7,8,9-tetrahydro-5H-5,8-epiminocyclohepta-[d]pyrimidine-10-carboxylate]
- pIC50: 5.30 to 6.30

Structure (SMILES): O=C(C(O)c1ccc(Cl)c(Cl)c1)N1[C@H]2CC[C@@H]1c1ccnc(F)c1C2 (single isomer, unassigned) [Compound 7]
- pIC50 [1]: < 5.30

Structure (SMILES): O=C(C(=O)N1[C@H]2CC[C@@H]1c1ccnc(F)c1C2)c1ccc(Cl)c(Cl)c1 [Compound 13, 1-(3,4-Dichlorophenyl)-2-((5R,8S)-1-fluoro-6,7,8,9-tetrahydro-5H-5,8-epiminocyclohepta[c]pyridin-10-yl)ethane-1,2-dione]
- pIC50: 5.30 to 6.30

Structure (SMILES): Fc1cc(Cl)c(Cl)cc1CN1[C@H]2CC[C@@H]1c1ccnc(F)c1C2 [Compound 9, (5R,8S)-10-(4,5-dichloro-2-fluorobenzyl)-1-fluoro-6,7,8,9-tetrahydro-5H-5,8-epiminocyclohepta[c]pyridine]
- pIC50: 5.30 to 6.30

Structure (SMILES): O=c1cc2c(c[nH]1)[C@H]1CC[C@@H](C2)N1C(=S)Nc1cc(Cl)c(C(F)(F)F)cc1F [Compound 2, (6S,9R)-N-(5-Chloro-2-fluoro-4-(trifluoromethyl)phenyl)-3-oxo-3,5,6,7,8,9-hexahydro-2H-6,9-epiminocyclohepta[c]pyridine-10-carbothioamide]
- pIC50: > 6.30
